Data from PubChem BioAssay AID520 (NMMLSC, 2006).
Calls of active or inactive are those of the source. How the calls were made is not given here.

Biological target: N-formyl peptide receptor 2 (Homo sapiens) (UniProt P25090)
Assay: concentration-dependent FPRL1 ligand displacement – cell-based, FPR counter-screen, fluorescent ligand, dose response (AID 520)
Conditions: FPRL1-expressing cells, fluorescent ligand binding inhibition; for Ki: measured here: FPRL1 binding Ki

N-formyl peptide receptor 2 (Homo sapiens), sequence (P25090 whole entry, looked up): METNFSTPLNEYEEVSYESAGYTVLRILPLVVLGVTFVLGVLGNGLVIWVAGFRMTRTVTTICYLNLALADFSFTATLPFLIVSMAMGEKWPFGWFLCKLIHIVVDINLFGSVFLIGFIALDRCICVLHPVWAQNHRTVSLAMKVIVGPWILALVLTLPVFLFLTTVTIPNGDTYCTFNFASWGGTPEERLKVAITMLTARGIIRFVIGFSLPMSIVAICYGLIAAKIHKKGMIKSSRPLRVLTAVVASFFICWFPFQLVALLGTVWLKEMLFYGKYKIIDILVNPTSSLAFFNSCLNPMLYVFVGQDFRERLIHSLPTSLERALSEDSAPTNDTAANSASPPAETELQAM

Structure (SMILES) | Ki | IC50
COc1ccc(OC)c(NC(=O)C2C3CCC(C3=C(C)C)C2C(=O)O)c1 (stereo not drawn) | > 40.3 µM | 
COc1cc(-n2nc(C)c3c2OC(N)=C(C#N)C3c2ccccc2)c(Cl)c(Br)c1O (stereo not drawn) | > 40.3 µM | > 66.7 µM (inactive)
O=c1cc(N2CCc3ccccc32)[nH]c(=O)n1Cc1ccc(F)cc1 | > 40.3 µM | 
Clc1ccc(C2CC(c3cccs3)n3ncnc3N2)cc1Cl (stereo not drawn) | > 40.3 µM | 
COCCCN1C(=O)C(O)=C(C(=O)c2ccco2)C1c1cccc(Br)c1 (stereo not drawn) | > 40.3 µM | > 66.7 µM (inactive)
COc1cccc2cc(C(=O)C3=C(O)C(=O)N(Cc4ccco4)C3c3cccnc3)oc12 (stereo not drawn) | > 40.3 µM | > 66.7 µM (inactive)
CCN(CCCc1ccccc1)CCCc1ccccc1 | > 40.3 µM | 
O=C(O)CCCNc1cc(N2CCC3(CC2)OCCO3)c2noc3c2c1C(=O)c1ccccc1-3 | 6.6 µM | 
COc1ccc(CC(=O)Nc2ccc(-c3nnc(-c4ccc(C)cc4)o3)cc2)cc1 | > 40.3 µM | 
COc1ccc(C2C(C(=O)c3ccco3)=C(O)C(=O)N2Cc2cccnc2)cc1OC (stereo not drawn) | > 40.3 µM | > 66.7 µM (inactive)
CCCCCNC(=O)c1ccc2c(=O)[nH]c3c(C(=O)NCC4CCCO4)sc(=S)n3c2c1 (stereo not drawn) | > 40.3 µM | 
O=C(NCCN1CCOCC1)NC1(C(F)(F)F)Oc2ccc(Cl)cc2O1 (stereo not drawn) | > 40.3 µM | 
CC(C)OC(=O)c1cc(NC(=O)C2C3CCC(O3)C2C(=O)O)cc(C(=O)OC(C)C)c1 (stereo not drawn) | > 40.3 µM | 
COC(=O)Cc1[nH]nc2c1C(C1C=CCCC1)C(C#N)=C(N)O2 (stereo not drawn) | > 40.3 µM | > 66.7 µM (inactive)
CCN(CC)c1ccc(C=N/C(C#N)=C(\N)C#N)cc1 | > 40.3 µM | > 66.7 µM (inactive)
COc1cccc(OC)c1/C(O)=C(\C#N)c1nc2ccccc2[nH]1 | > 40.3 µM | > 66.7 µM (inactive)
O=C(C1=C(O)C(=O)N(CC2CCCO2)C1c1cccnc1)c1ccco1 (stereo not drawn) | > 40.3 µM | > 66.7 µM (inactive)
COc1cc2c3c(c1)/C(=C1/SC(NC(C)=O)=NC1=O)C(=O)N3C(C)(C)C=C2C | > 40.3 µM | 
O=C(C1=C(O)C(=O)N(c2ncccn2)C1c1ccc(Cl)cc1)c1ccco1 (stereo not drawn) | > 40.3 µM | > 66.7 µM (inactive)
OCc1nc2ccccc2n1CC(O)Cn1ccc2ccccc21 (stereo not drawn) | > 40.3 µM | 
COc1ccc(-c2nnc(Nc3nc4c(OC)cccc4s3)o2)c(OC)c1 | > 40.3 µM | 
CC(=O)SCC(=O)N=c1sc2cc(F)ccc2n1C | > 40.3 µM | 
C[N+]1(C)[C@@H]2CC(OC(=O)[C@H](CO)c3ccccc3)C[C@H]1[C@@H]1O[C@@H]12 (stereo partly drawn) | > 40.3 µM | 
COc1ccc(-c2nc(N3CCCC3)[nH]c(=O)c2C#N)cc1 | > 40.3 µM | 

Structure (SMILES) | Ki | IC50
COc1ccc(-c2cn3cccnc3n2)cc1NC(=O)C1CC1 | 4.6 µM | 
CCOC(=O)c1oc2cc(O)ccc2c(=O)c1-c1ccccc1OC | > 40.3 µM | 
CCSc1nnc(NC(=O)CSc2nnc(Cc3cccn3C)n2CCc2ccccc2)s1 | > 40.3 µM | 
O=C(C1=C(O)C(=O)N(Cc2ccccc2)C1c1ccncc1)c1ccco1 (stereo not drawn) | > 40.3 µM | > 66.7 µM (inactive)
CCOC(=O)N1CCN(c2cc(NCCC(=O)O)c3c4c(onc24)-c2ccccc2C3=O)CC1 | 30.1 µM | 
Cc1cc(N2C(=O)C(O)=C(C(=O)c3ccco3)C2c2cccnc2)no1 (stereo not drawn) | > 40.3 µM | > 66.7 µM (inactive)
COc1ccc(-c2nc(-c3ccc(NC(=O)c4ccc(Br)o4)cc3)no2)cc1OC | > 40.3 µM | 
CC1Oc2ccccc2N(Cc2ccccc2Cl)C1=O (stereo not drawn) | > 40.3 µM | 
O=C(O)CC1Oc2ccc(Cl)cc2NC1=O (stereo not drawn) | > 40.3 µM | 
COc1cc(C2/C(=C(\O)c3ccc4c(c3)CC(C)O4)C(=O)C(=O)N2CCCn2ccnc2)ccc1O (stereo not drawn) | > 40.3 µM | > 66.7 µM (inactive)
Cc1cc(N2C(=O)C(=O)/C(=C(/O)c3ccc(F)cc3)C2c2cccc(Br)c2)no1 (stereo not drawn) | > 40.3 µM | > 66.7 µM (inactive)
Cc1ccc(NC(=O)C2C(=O)N(CCO)C3(C)CC2c2ccccc2O3)cc1 (stereo not drawn) | > 40.3 µM | 
O=C(Cn1c(=O)oc2ccccc21)N1CCN(c2ccccc2)CC1 | > 40.3 µM | 
COc1ccc(OC)c(C2C(C(=O)c3cc4ccccc4o3)=C(O)C(=O)N2c2cc(C)on2)c1 (stereo not drawn) | > 40.3 µM | > 66.7 µM (inactive)
Cc1nc(C)c(C(=O)C2=C(O)C(=O)N(CCCn3ccnc3)C2c2ccc(Cl)cc2)s1 (stereo not drawn) | > 40.3 µM | > 66.7 µM (inactive)
Cc1ccc(/C(O)=C2\C(=O)C(=O)N(c3cc(C)on3)C2c2cccc(Br)c2)cc1 (stereo not drawn) | > 40.3 µM | > 66.7 µM (inactive)
CCc1ccccc1NC(=O)C(C#N)Cc1cccnc1 (stereo not drawn) | > 40.3 µM | 
Fc1ccc(-c2nnc3ccc(N4CCCC4)nn23)cc1 | > 40.3 µM | 
C=CCn1c(SCCCC)nc(O)cc1=O | > 40.3 µM | 
COc1ccc2nc(Nc3nc(C)c(C(C)=O)s3)sc2c1 | > 40.3 µM | 
CCC(Sc1nc2c(c(=O)[nH]1)CCC2)C(=O)Nc1cccc(OC)c1 (stereo not drawn) | > 40.3 µM | 
Cc1cccc(-n2nc3c(c2NC(=O)c2ccco2)CSC3)c1C | > 40.3 µM | 
O=C(O)C1CCCCC1C(=O)Nc1ccccc1Cl (stereo not drawn) | > 40.3 µM | 
